# Laboratory results taken from patent US9738634B2, “Heterocyclic amide compound and herbicide” (SYNGENTA PARTICIPATIONS AG, priority 2013, dated 2017).
# Columns and labels:
# Assay type in all cases: in vivo
# Settings in all cases: soil treatment, treatment dosage 80 g/ha
# rapeseed = test: Test Example 3: soil treatment, effect on crop; g: rapeseed
# Excerpt: (§1) Weedkilling Efficacy Test Through Soil Treatment
# (§2) Sterilized diluvial soil was introduced into 21 cm long, 13 cm wide, 7 cm deep plastic boxes, and seeds of crabgrass, green foxtail, barnyard grass, wild oat, black-grass, Italian ryegrass, common wind-grass, Indian mallow, redroot pigweed, fig-leafed goosefoot, chickweed, catchweed, birds-eye speedwell, corn, soybean, rice, wheat, beet and rapeseed were each spot-sown, and covered with about 1.5 cm of soil. Next, emulsions of compounds of the present invention prepared according to compounding example 2 were diluted with water to give the specified dosages, and applied uniformly onto the soil surface with a small sprayer. The plants were grown by placing the plastic boxes in a greenhouse at 25 to 30° C., and 3 weeks after the pesticide treatment the effect on each type of plant was investigated on the basis of the assessment criteria of test example 1.
# (§3) A: barnyard grass, B: bulrush, C: oval-leafed pondweed, D: crabgrass, E: green foxtail, F: barnyard grass, G: wild oat, H: black-grass, I: Italian ryegrass, J: common wind-grass, K: Indian mallow, L: redroot pigweed, M: fig-leafed goosefoot, N: chickweed, O: catchweed, p: birds-eye speedwell, a: transplanted rice, b: directly sown rice, c: corn, d: soybean, e: wheat, f: beet, g: rapeseed
# (§4) Further, pesticide dosage (g/ha) indicates the concentration regulated such that treatment was with only the stated number of grams (g), when calculated per hectare (ha).
# Italian ryegrass = test: Test Example 3: weedkilling efficacy through soil treatment; I: Italian ryegrass
# Summary of the method: (§5)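 Crop and weed responses were judged three weeks after a uniform surface spray of the water-diluted emulsion at the given g/ha rate. Seeds sat beneath about 1.5 cm of sterilized diluvial soil, and boxes stood in a greenhouse at 25 to 30° C.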
# black-grass = test: Test Example 3: weedkilling efficacy through soil treatment; H: black-grass
# Summary of the method: as §5
# common wind-grass = test: Test Example 3: weedkilling efficacy through soil treatment; J: common wind-grass
# Excerpt: as §1, §2, §3, §4
# wheat = test: Test Example 3: soil treatment, effect on crop; e: wheat
# Summary of the method: as §5
SMILES,"g: rapeseed, effect on crop grade (rapeseed)","I: Italian ryegrass, weedkilling efficacy grade (Italian ryegrass)","H: black-grass, weedkilling efficacy grade (black-grass)","J: common wind-grass, weedkilling efficacy grade (common wind-grass)","e: wheat, effect on crop grade (wheat)"
CC(C)(C(=O)Nc1cc(Cl)nc(Cl)n1)N1COCN(c2ccccc2)C1=O [A-1-21],0 (weed kill ratio 5% or less (practically no effect)),"4 (weed kill ratio 70% or more, less than 90%)","4 (weed kill ratio 70% or more, less than 90%)","5 (weed kill ratio 90% or more, (practically complete withering))",0 (weed kill ratio 5% or less (practically no effect))
CC(C)(C(=O)Nc1cc(Br)ccn1)N1COCN(c2ccccc2)C1=O [A-2-08],0 (weed kill ratio 5% or less (practically no effect)),"5 (weed kill ratio 90% or more, (practically complete withering))","5 (weed kill ratio 90% or more, (practically complete withering))","5 (weed kill ratio 90% or more, (practically complete withering))",0 (weed kill ratio 5% or less (practically no effect))
